Measurements reported in US8916702B2 (priority 2012, dated 2014).
pEC50: −log10 of the molar value. Read-outs that look alike come from different tables or passages of the source.

Tested on: HCV pseudoparticles (genotype 1a HCV E1 and E2 envelope, H77C isolate)
Test: microbe, parasite or virus in culture
Type: cell-based
Conditions: Hepatitis C virus
[1] = Huh-7, read-out: Activity (EC50 class), HCV pseudoparticles (genotype 1a, H77C) in Huh7 cells, EC50 expressed as class A/B
[2] = Huh-7, 48 h, read-out: Activity (EC50 class), HCV pseudoparticle infection of Huh7 cells, luciferase 2 days after infection, EC50 expressed as class A/B
[3] = Huh-7, 48 h, read-out: Activity (EC50 class), HCV pseudoparticles, Huh7 cells, luciferase 2 days after infection, average of duplicates
[4] = Huh-7, 48 h, HCV pseudoparticle infection of Huh7 cells, luciferase 2 days after infection, average of duplicates
[5] = Huh-7, 48 h, HCV pseudoparticles (genotype 1a, H77C) in Huh7 cells, average of duplicate, luciferase 2 days after infection

CC(C)(CNC(=O)C(=O)Nc1ccc2ncccc2c1)CNC(=O)c1ccc(Nc2nc(NC3(c4ccc(Cl)cc4)CC3)nc(OCC(F)(F)F)n2)cc1 [Compound 3038]
pEC50 [1]: 8.00 to 11.00

O=C(NCC[C@H](NC(=O)c1ccc(Nc2nc(NC3(c4ccc(Cl)cc4)CC3)nc(OCC(F)(F)F)n2)cc1)C(=O)O)C(=O)Nc1cccc(F)c1 [Compound 1269]
pEC50 [2]: 8.00 to 11.00

COC(=O)[C@H](CNC(=O)C(=O)Nc1ccc(Oc2ccccc2)nc1)NC(=O)c1ccc(Nc2nc(NC3(c4ccc(Cl)cc4)CC3)nc(OCC(F)(F)F)n2)cc1 [Compound 3715]
pEC50 [3]: 8.00 to 11.00

O=C(NCc1ccc(F)cc1)C(=O)N(CCO)CCCNC(=O)c1ccc(Nc2nc(NC3(c4ccc(Cl)cc4)CC3)nc(OCC(F)(F)F)n2)cc1 [Compound 3502]
pEC50 [1]: 8.00 to 11.00

C[C@H]1[C@@H](NC(=O)C(=O)NC[C@H](NC(=O)c2ccc(Nc3nc(NC4(c5ccc(Cl)cc5)CC4)nc(OCC(F)(F)F)n3)cc2)C(=O)O)C[C@H]2C[C@@H]1C2(C)C [Compound 1094]
pEC50 [2]: 8.00 to 11.00

O=C(NCC[C@H](NC(=O)c1ccc(Nc2nc(NC3(c4ccc(Cl)cc4)CC3)nc(OCC(F)(F)F)n2)cc1)C(=O)O)C(=O)NCc1ccccc1 [Compound 1187]
pEC50 [4]: 10.10
pEC50 [2]: 8.00 to 11.00

COC(=O)[C@H](CCNC(=O)C(=O)Nc1ccn(C)n1)NC(=O)c1ccc(Nc2nc(NC3(c4ccc(Cl)cc4)CC3)nc(OCC(F)(F)F)n2)cc1 [Compound 1221]
pEC50 [2]: 8.00 to 11.00

COC(=O)[C@H](CCNC(=O)C(=O)Nc1ccnn1C)NC(=O)c1ccc(Nc2nc(NC3(c4ccc(Cl)cc4)CC3)nc(OCC(F)(F)F)n2)cc1 [Compound 1239]
pEC50 [2]: 8.00 to 11.00

CC(C)(CNC(=O)C(=O)Nc1ccc(-n2cccn2)cc1)CNC(=O)c1ccc(Nc2nc(NC3(c4ccc(Cl)cc4)CC3)nc(OCC(F)(F)F)n2)cc1 [Compound 3795]
pEC50 [3]: 8.00 to 11.00

CC(C)(CNC(=O)C(=O)Nc1ccc(F)cc1F)CNC(=O)c1ccc(Nc2nc(NC3(c4ccc(Cl)cc4)CC3)nc(OCC(F)(F)F)n2)cc1F [Compound 3555]
pEC50 [1]: 8.00 to 11.00

CC(C)(CNC(=O)C(=O)Nc1ccc2cn[nH]c2c1)CNC(=O)c1ccc(Nc2nc(NC3(c4ccc(Cl)cc4)CC3)nc(OCC(F)(F)F)n2)cc1 [Compound 3022]
pEC50 [1]: 8.00 to 11.00

COC(=O)[C@H](CNC(=O)C(=O)NCc1ccccc1OC)NC(=O)c1ccc(Nc2nc(NC3(c4ccc(Cl)cc4)CC3)nc(OCC(F)(F)F)n2)cc1 [Compound 1150]
pEC50 [2]: 8.00 to 11.00

CC(C)(CNC(=O)C(=O)NCC1CC1)CNC(=O)c1ccc(Nc2nc(NC3(c4ccc(Cl)cc4)CC3)nc(OCC(F)(F)F)n2)cc1 [Compound 1032]
pEC50 (GETYPE1A, Huh-7, 48 h, read-out: Activity (EC50 class), HCV pseudoparticle infection of Huh7 cells, luciferase 2 days after infection, EC50 expressed as class A/B): 8.00 to 11.00

O=C(NC[C@H](NC(=O)c1ccc(Nc2nc(NC3(c4ccccc4)CC3)nc(OCC(F)(F)F)n2)cc1)C(=O)O)C(=O)Nc1ccc(Oc2ccc(F)cc2)cc1 [Compound 3269]
pEC50 [1]: 8.00 to 11.00

Cc1ccccc1-c1ccc(NC(=O)C(=O)NC[C@H](NC(=O)c2ccc(Nc3nc(NC4(c5ccc(Cl)cc5)CC4)nc(OCC(F)(F)F)n3)cc2)C(=O)O)cc1 [Compound 3272]
pEC50 [1]: 8.00 to 11.00

CCN(CC)CCNC(=O)c1ccc(NC(=O)C(=O)NCC[C@H](NC(=O)c2ccc(Nc3nc(NC4(c5ccc(Cl)cc5)CC4)nc(OCC(F)(F)F)n3)cc2)C(=O)OC)cc1 [Compound 3117]
pEC50 [1]: 8.00 to 11.00

O=C(NCCNC(=O)c1ccc(Nc2nc(NC3(c4ccc(Cl)cc4)CC3)nc(OCC(F)(F)F)n2)cc1)C(=O)Nc1ccc(F)cc1 [Compound 3373]
pEC50 [5]: 10.28
pEC50 [1]: 8.00 to 11.00

O=C(NCC[C@H](NC(=O)c1ccc(Nc2nc(NC3(c4ccc(Cl)cc4)CC3)nc(OCC(F)(F)F)n2)cc1)C(=O)O)C(=O)Nc1cccc(-c2ccncc2)c1 [Compound 3637]
pEC50 [3]: 8.00 to 11.00

CCOC(=O)[C@H](CNC(=O)C(=O)NC)NC(=O)c1ccc(Nc2nc(NC3(c4ccc(Cl)cc4)CC3)nc(OCC(F)(F)F)n2)cc1 [Compound 1024, (S)-ethyl 2-(4-(4-(1-(4-chlorophenyl)cyclopropylamino)-6-(2,2,2-trifluoroethoxy)-1,3,5-triazin-2-ylamino)benzamido)-3-(2-(methylamino)-2-oxoacetamido)propanoate]
pEC50 [2]: 8.00 to 11.00

COC(=O)[C@H](CNC(=O)C(=O)Nc1ccc(O)nc1)NC(=O)c1ccc(Nc2nc(NC3(c4ccc(Cl)cc4)CC3)nc(OCC(F)(F)F)n2)cc1 [Compound 3722]
pEC50 [3]: 8.00 to 11.00

O=C(Nc1cc(F)cc(F)c1)C(=O)N1CCCC(CNC(=O)c2ccc(Nc3nc(NC4(c5ccc(Cl)cc5)CC4)nc(OCC(F)(F)F)n3)cc2)C1 (centres unmarked) [Compound 3485]
pEC50 [1]: 8.00 to 11.00

CC(C)(CNC(=O)C(=O)NC1CCCCC1)CNC(=O)c1ccc(Nc2nc(NC3(c4ccc(Cl)cc4)CC3)nc(OCC(F)(F)F)n2)cc1 [Compound 1544]
pEC50 [4]: 10.10
pEC50 [2]: 8.00 to 11.00

O=C(NCC[C@H](NC(=O)c1ccc(Nc2nc(NC3(c4ccc(Cl)cc4)CC3)nc(OCC(F)(F)F)n2)cc1)C(=O)O)C(=O)Nc1cn[nH]c1 [Compound 1266]
pEC50 [2]: 8.00 to 11.00

COC(=O)[C@@H](CCNC(=O)C(=O)Nc1ccc(OCCC2C(=O)c3ccccc3C2=O)nc1)NC(=O)c1ccc(Nc2nc(NC3(c4ccc(Cl)cc4)CC3)nc(OCC(F)(F)F)n2)cc1 [Compound 3569]
pEC50 [1]: 8.00 to 11.00

CC(C)(CNC(=O)C(=O)Nc1cccc(C(=N)N)c1)CNC(=O)c1ccc(Nc2nc(NC3(c4ccc(Cl)cc4)CC3)nc(OCC(F)(F)F)n2)cc1 [Compound 3041]
pEC50 [5]: 10.17
pEC50 [1]: 8.00 to 11.00

CC(C)(CNC(=O)C(=O)Nc1ccc(Cl)c(F)c1)CNC(=O)c1ccc(Nc2nc(NC3(c4ccc(Cl)cc4)CC3)nc(OCC(F)(F)F)n2)cc1F [Compound 3513]
pEC50 [1]: 8.00 to 11.00

CCOCCOc1ccc(NC(=O)C(=O)NC[C@H](NC(=O)c2ccc(Nc3nc(NC4(c5ccc(Cl)cc5)CC4)nc(OCC(F)(F)F)n3)cc2)C(=O)O)cc1 [Compound 3277]
pEC50 [1]: 8.00 to 11.00

COC(=O)[C@H](CNC(=O)C(=O)Nc1ccc(OCc2ccccc2)cc1)NC(=O)c1ccc(Nc2nc(NC3(c4ccc(Cl)cc4)CC3)nc(OCC(F)(F)F)n2)cc1 [Compound 3090]
pEC50 [1]: 8.00 to 11.00

O=C(NCC[C@H](NC(=O)c1ccc(Nc2nc(NC3(c4ccc(Cl)cc4)CC3)nc(OCC(F)(F)F)n2)cc1)C(=O)O)C(=O)Nc1ccc(Oc2ccncc2)cc1 [Compound 3544]
pEC50 [1]: 6.00 to 8.00

CC(C)(CNC(=O)c1ccc(Nc2nc(NC3(c4ccc(Cl)cc4)CC3)nc(OCC(F)(F)F)n2)cc1)NC(=O)C(=O)N1CCCCC1 [Compound 3439]
pEC50 [1]: 8.00 to 11.00

O=C(NC[C@H](NC(=O)c1ccc(Nc2nc(NC3(c4ccc(Cl)cc4)CC3)nc(OCC(F)(F)F)n2)cc1)C(=O)O)C(=O)N[C@@H]1C[C@@H]2CC[C@H]1C2 [Compound 1080]
pEC50 [2]: 8.00 to 11.00

COC(=O)[C@H](CCNC(=O)C(=O)NCCn1ccnc1C)NC(=O)c1ccc(Nc2nc(NC3(c4ccc(Cl)cc4)CC3)nc(OCC(F)(F)F)n2)cc1 [Compound 1323]
pEC50 [4]: 8.20
pEC50 [2]: 8.00 to 11.00

O=C(NC/C(=N/C(=O)c1ccc(Nc2nc(NC3(c4ccc(Cl)cc4)CC3)nc(OCC(F)(F)F)n2)cc1)C(=O)O)C(=O)Nc1ccc(OCC(F)(F)F)cc1 [Compound 3164]
pEC50 [5]: 9.17
pEC50 [1]: 8.00 to 11.00

Cc1ccc(NC(=O)C(=O)NCC(C)(C)CNC(=O)c2ccc(Nc3nc(NC4(c5ccc(Cl)cc5)CC4)nc(OCc4ccccc4Cl)n3)cc2)cc1 [Compound 3850]
pEC50 [3]: 8.00 to 11.00

COC(=O)[C@@H](CCNC(=O)C(=O)Nc1ccccc1-c1ccccc1)NC(=O)c1ccc(Nc2nc(NC3(c4ccc(Cl)cc4)CC3)nc(OCC(F)(F)F)n2)cc1 [Compound 1528]
pEC50 [2]: 8.00 to 11.00
